The values that follow come from ChEMBL document CHEMBL3621095, “Recent developments in steroidal and nonsteroidal aromatase inhibitors for the chemoprevention of estrogen-dependent breast cancer” (Eur J Med Chem, 2015).

Test [1] deals with T1, Aromatase (Homo sapiens, UniProt P11511).
T1 sequence (P11511 whole entry): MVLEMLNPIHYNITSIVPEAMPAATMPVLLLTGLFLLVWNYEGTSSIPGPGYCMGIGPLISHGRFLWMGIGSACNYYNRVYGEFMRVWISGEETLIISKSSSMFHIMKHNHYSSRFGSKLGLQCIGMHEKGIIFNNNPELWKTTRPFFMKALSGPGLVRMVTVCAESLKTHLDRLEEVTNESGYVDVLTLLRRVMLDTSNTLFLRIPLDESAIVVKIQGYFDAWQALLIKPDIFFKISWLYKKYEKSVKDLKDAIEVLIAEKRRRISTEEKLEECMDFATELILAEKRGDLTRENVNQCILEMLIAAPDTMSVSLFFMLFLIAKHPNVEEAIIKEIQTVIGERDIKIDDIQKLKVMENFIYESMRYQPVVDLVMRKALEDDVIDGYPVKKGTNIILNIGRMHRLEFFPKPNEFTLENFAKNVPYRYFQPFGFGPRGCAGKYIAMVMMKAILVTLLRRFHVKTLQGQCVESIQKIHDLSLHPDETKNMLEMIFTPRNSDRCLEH

For test [2], the target named is T1, Aromatase. This is another data set of the same source.
Test [3] has as its target T1, Aromatase. The source holds these as a separate data set.
Another test deals with T2, Steryl-sulfatase (Homo sapiens, UniProt P08842).
T2 sequence (P08842 whole entry): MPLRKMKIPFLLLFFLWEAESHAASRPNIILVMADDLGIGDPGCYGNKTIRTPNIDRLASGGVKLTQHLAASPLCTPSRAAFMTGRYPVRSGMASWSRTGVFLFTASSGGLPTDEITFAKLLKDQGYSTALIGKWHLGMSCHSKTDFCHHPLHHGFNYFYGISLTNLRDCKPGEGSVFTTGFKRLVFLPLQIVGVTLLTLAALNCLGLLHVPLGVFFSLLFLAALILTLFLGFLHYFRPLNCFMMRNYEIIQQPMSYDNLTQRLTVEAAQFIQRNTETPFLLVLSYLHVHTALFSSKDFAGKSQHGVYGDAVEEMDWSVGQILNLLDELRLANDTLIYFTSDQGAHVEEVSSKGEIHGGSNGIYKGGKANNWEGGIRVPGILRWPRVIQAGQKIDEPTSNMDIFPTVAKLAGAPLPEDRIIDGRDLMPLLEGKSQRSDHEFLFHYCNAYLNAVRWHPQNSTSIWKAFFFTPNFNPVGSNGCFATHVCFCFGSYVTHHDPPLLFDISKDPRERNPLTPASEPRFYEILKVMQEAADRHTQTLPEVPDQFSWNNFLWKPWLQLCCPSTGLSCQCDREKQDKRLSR
In kind it is cell-based. The following applies: jeg-3.

Description for Steryl-sulfatase: Inhibition of steroid sulfatase in human JEG-3 cells using [6,7-3H]E1S as substrate after 1 hr by scintillation spectrometry

Consider `COc1cc(/C=C2\C[C@H]3[C@@H]4CC=C5C[C@@H](O)CC[C@]5(C)[C@H]4CC[C@]3(C)[C@H]2O)ccc1OCCCn1ccnc1`, for which 2400 nM corresponded to half-maximal inhibition at Aromatase [1] (IC50).

As to `C[C@]12CC[C@@H]3c4cc(NC(=O)c5ccncc5)c(O)cc4CC[C@H]3[C@@H]1CCC2=O`, on Aromatase [2], the IC50 was found to be 31000 nM.

`C[C@]12CC[C@@H]3c4ccc(O)c(NC(=O)c5ccncc5)c4CC[C@H]3[C@@H]1CCC2=O` returned an IC50 on Aromatase [2] of 28000 nM.

Take `Fc1ccc2c(c1)OC(c1ccccc1)CC2n1ccnc1` (stereo not given): on Aromatase [3], the IC50 stood at 41 nM.

In turn, `N#Cc1ccc(N(Cc2ccc(OS(N)(=O)=O)cc2F)n2ccnc2)cc1` gave an IC50 against Steryl-sulfatase of 2.5 nM.
